26 compounds from patent publication US8653100B2 (AbbVie Inc., priority 2008, dated 2014) can be followed below.

One assay addresses human GlyT1c (Homo sapiens (Human), UniProt P48067). The assay can be described thus: [3H]-Glycine uptake into recombinant CHO cells expressing human GlyT1. The assay is classed as cell-based. The conditions noted are these: hGlyT1c_5_CHO cells, 200 nM [3H]-glycine. As for the experimental part: [^3H]-Glycine uptake into recombinant CHO cells expressing human GlyT1: Human GlyT1c expressing recombinant hGlyT1c—5_CHO cells were plated at 20,000 cells per well in 96 well Cytostar-T scintillation microplates (Amersham Biosciences) and cultured to sub-confluency for 24 h. […] The plates were placed in a Wallac Microbeta (PerkinElmer) and continuously counted by solid phase scintillation spectrometry during up to 3 hours. […] IC50 calculations were made by four-parametric logistic nonlinear regression analysis (GraphPad Prism) using determinations within the range of linear increase of [^3H]-glycine incorporation between 60 and 120 min.

The next assay addresses human GlyT1c transporter (Homo sapiens (Human), UniProt P48067). The assay can be described thus: Radioligand binding assay using recombinant CHO cell membranes expressing human GlyT1. The conditions noted are these: read-out: radioligand binding Kiapp. The gist of the method: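 Competition binding of [^3H]-(R)-NPTS (0.5 nM) to CHO membranes expressing human GlyT1c (50 μg/ml protein) in pH 7.5 Hepes/NaCl buffer with 1% DMSO, 1 h at room temperature. Non-specific binding defined with 10 μM Org24598; filtration and scintillation counting, one-site fit, Ki via Cheng-Prusoff.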

[1] abbreviates: radioligand [3H]-(R)-NPTS (examples 1-19, 22-52, 54-87).

Structures are written as SMILES. Structures can show the parent of a compound that is named as a salt. Where two headings read alike, the source gives them in different places.

In general, IC50 refers to the midpoint of a concentration-inhibition curve.

human GlyT1c transporter, sequence (P48067 whole entry): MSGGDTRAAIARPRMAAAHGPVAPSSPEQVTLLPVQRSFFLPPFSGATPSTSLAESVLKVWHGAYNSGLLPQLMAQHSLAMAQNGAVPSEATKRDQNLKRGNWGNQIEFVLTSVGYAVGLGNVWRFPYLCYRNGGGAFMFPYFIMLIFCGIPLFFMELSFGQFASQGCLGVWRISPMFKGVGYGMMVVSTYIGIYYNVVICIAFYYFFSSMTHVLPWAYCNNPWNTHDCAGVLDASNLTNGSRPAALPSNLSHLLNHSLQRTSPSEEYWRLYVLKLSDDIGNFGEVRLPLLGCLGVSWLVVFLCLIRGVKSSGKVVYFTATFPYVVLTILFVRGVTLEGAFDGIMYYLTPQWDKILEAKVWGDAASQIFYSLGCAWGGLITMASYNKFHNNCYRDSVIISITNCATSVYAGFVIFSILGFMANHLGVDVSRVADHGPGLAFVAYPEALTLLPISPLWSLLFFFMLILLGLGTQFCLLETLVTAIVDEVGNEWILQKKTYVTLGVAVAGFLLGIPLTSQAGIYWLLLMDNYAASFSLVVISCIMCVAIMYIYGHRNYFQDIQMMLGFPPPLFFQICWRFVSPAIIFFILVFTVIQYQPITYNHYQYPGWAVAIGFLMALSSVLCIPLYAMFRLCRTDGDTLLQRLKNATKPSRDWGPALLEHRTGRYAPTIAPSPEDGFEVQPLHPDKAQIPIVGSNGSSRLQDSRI
human GlyT1c, sequence (P48067 whole entry): as above

Turning to `NCCS(=O)(=O)NCCOc1ccc2c(c1)C(C1(c3ccc(Cl)cc3)CCC1)NCC2` (single isomer, unassigned) [Example 152, 2-Amino-N-[2-({1-[1-(4-Chlorophenyl)cyclobutyl]-1,2,3,4-tetrahydroisoquinolin-7-yl}oxy)ethyl]ethanesulfonamide dihydrochloride], the IC50 on human GlyT1c was no more than 10000 nM. At human GlyT1c transporter (examples 88-204, radioligand not specified by footnote), the Ki was no more than 100 nM.

`O=C(NCCOc1ccc2c(c1)C(C1(c3ccc(Cl)cc3)CCC1)NCC2)c1ccc(Cl)cc1Cl` (stereo not shown) [Example 1, 2,4-Dichloro-N-(2-{1-[1-(4-chloro-phenyl)-cyclobutyl]-1,2,3,4-tetrahydro-isoquinolin-7-yloxy}-ethyl)-benzamide]: the IC50 on human GlyT1c is no more than 10000 nM. In addition, the Ki on human GlyT1c transporter (setting [1]) is no more than 10000 nM. `CS(=O)(=O)NCCOc1ccc2c(c1)C(C1(c3ccc(Cl)cc3)CCC1)NCC2` (stereo not shown) [Example 2, N-(2-{1-[1-(4-Chloro-phenyl)-cyclobutyl]-1,2,3,4-tetrahydro-isoquinolin-7-yloxy}-ethyl)-methanesulfonamide]: the IC50 on human GlyT1c was no more than 100 nM. Moreover, the Ki on human GlyT1c transporter (setting [1]) was no more than 100 nM. For `CCCS(=O)(=O)NCCOc1ccc2c(c1)C(C1(c3ccc(Cl)cc3)CCC1)NCC2` (stereo not shown) [Example 4, Propane-1-sulfonic acid (2-{1-[1-(4-chloro-phenyl)-cyclobutyl]-1,2,3,4-tetrahydro-isoquinolin-7-yloxy}-ethyl)-amide hydrochloride], the half-inhibitory concentration (IC50) on human GlyT1c was no more than 100 nM. The Ki at human GlyT1c transporter (setting [1]) is no more than 100 nM. For the compound `CCS(=O)(=O)NCCOc1ccc2c(c1)C(C1(c3ccc(Cl)cc3)CCC1)NCC2` (stereo not shown) [Example 7, Ethanesulfonic acid (2-{1-[1-(4-chloro-phenyl)-cyclobutyl]-1,2,3,4-tetrahydro-isoquinolin-7-yloxy}-ethyl)-amide hydrochloride], the IC50 at human GlyT1c was no more than 100 nM. The Ki at human GlyT1c transporter (setting [1]) was no more than 100 nM. `CC(C)CS(=O)(=O)NCCOc1ccc2c(c1)C(C1(c3ccc(Cl)cc3)CCC1)NCC2` (stereo not shown) [Example 8, 2-Methyl-propane-1-sulfonic acid (2-{1-[1-(4-chloro-phenyl)-cyclobutyl]-1,2,3,4-tetrahydro-isoquinolin-7-yloxy}-ethyl)-amide hydrochloride]: on human GlyT1c, the 50% inhibitory concentration (IC50) is no more than 100 nM. On human GlyT1c transporter (setting [1]), the Ki was no more than 100 nM. Turning to `O=S(=O)(NCCOc1ccc2c(c1)C(C1(c3ccc(Cl)cc3)CCC1)NCC2)c1ccc2ccccc2c1` (stereo not shown) [Example 9, Naphthalene-2-sulfonic acid (2-{1-[1-(4-chloro-phenyl)-cyclobutyl]-1,2,3,4-tetrahydro-isoquinolin-7-yloxy}-ethyl)-amide hydrochloride], the half-maximal inhibitory concentration (IC50) on human GlyT1c is no more than 10000 nM. For the same compound, the Ki at human GlyT1c transporter (setting [1]) is no more than 10000 nM. `O=S(=O)(NCCOc1ccc2c(c1)C(C1(c3ccc(Cl)cc3)CCC1)NCC2)c1cccnc1` (stereo not shown) [Example 10, Pyridine-3-sulfonic acid (2-{1-[1-(4-chloro-phenyl)-cyclobutyl]-1,2,3,4-tetrahydro-isoquinolin-7-yloxy}-ethyl)-amide hydrochloride]: the 50% inhibitory concentration (IC50) on human GlyT1c (hydrochloride) was no more than 100 nM. In addition, the Ki on human GlyT1c transporter (setting [1]) was no more than 100 nM. With `O=S(=O)(NCCOc1ccc2c(c1)C(C1(c3ccc(Cl)cc3)CCC1)NCC2)C(F)(F)F` (stereo not shown) [Example 11, N-(2-{1-[1-(4-Chloro-phenyl)-cyclobutyl]-1,2,3,4-tetrahydro-isoquinolin-7-yloxy}-ethyl)-C,C,C-trifluoro-methanesulfonamide], the IC50 on human GlyT1c was no more than 10000 nM. For the same compound, the Ki at human GlyT1c transporter (setting [1]) is no more than 10000 nM. Regarding `CS(=O)(=O)NCCOc1cc2c(cc1F)CCNC2C1(c2ccc(Cl)cc2)CCC1` (stereo not shown) [Example 12, N-(2-{1-[1-(4-Chloro-phenyl)-cyclobutyl]-6-fluoro-1,2,3,4-tetrahydro-isoquinolin-7-yloxy}-ethyl)-methanesulfonamide hydrochloride], on human GlyT1c, the 50% inhibitory concentration (IC50) was no more than 100 nM. Moreover, at human GlyT1c transporter (setting [1]), the Ki was no more than 1000 nM.

Regarding `O=S(=O)(NCCOc1cc2c(cc1F)CCNC2C1(c2ccc(Cl)cc2)CCC1)c1ccccc1` (stereo not shown) [Example 13, N-(2-{1-[1-(4-Chloro-phenyl)-cyclobutyl]-6-fluoro-1,2,3,4-tetrahydro-isoquinolin-7-yloxy}-ethyl)-benzenesulfonamide hydrochloride], the IC50 at human GlyT1c is no more than 1000 nM. At human GlyT1c transporter (setting [1]), the Ki is no more than 1000 nM.

For `O=S(=O)(NCCOc1cc2c(cc1F)CCNC2C1(c2ccc(Cl)cc2)CCC1)c1cccnc1` (stereo not shown) [Example 14, Pyridine-3-sulfonic acid (2-{1-[1-(4-chloro-phenyl)-cyclobutyl]-6-fluoro-1,2,3,4-tetrahydro-isoquinolin-7-yloxy}-ethyl)-amide hydrochloride], the 50% inhibitory concentration (IC50) on human GlyT1c was no more than 100 nM. Further, the Ki on human GlyT1c transporter (setting [1]) was no more than 100 nM.

On to `CCCS(=O)(=O)NCCOc1cc2c(cc1F)CCNC2C1(c2ccc(Cl)cc2)CCC1` (stereo not shown) [Example 15, Propane-1-sulfonic acid (2-{1-[1-(4-chloro-phenyl)-cyclobutyl]-6-fluoro-1,2,3,4-tetrahydro-isoquinolin-7-yloxy}-ethyl)-amide hydrochloride], for which the half-inhibitory concentration (IC50) at human GlyT1c is no more than 100 nM. Besides, the Ki on human GlyT1c transporter (setting [1]) is no more than 100 nM. Turning to `CCCCS(=O)(=O)NCCOc1ccc2c(c1)C(C1(c3ccc(Cl)cc3)CCC1)NCC2` (stereo not shown) [Example 16, Butane-1-sulfonic acid (2-{1-[1-(4-chloro-phenyl)-cyclobutyl]-1,2,3,4-tetrahydro-isoquinolin-7-yloxy}-ethyl)-amide hydrochloride], on human GlyT1c, the IC50 is no more than 100 nM. The Ki at human GlyT1c transporter (setting [1]) is no more than 100 nM.

In the case of `CCCS(=O)(=O)NCCOc1ccc2c(c1)C(C1(c3ccc(F)cc3)CCC1)N(N)CC2` (stereo not shown) [Example 75, N-[2-({2-Amino-1-[1-(4-fluorophenyl)cyclobutyl]-1,2,3,4-tetrahydroisoquinolin-7-yl}oxy)ethyl]propane-1-sulfonamide], at human GlyT1c, the concentration for half-maximal inhibition (IC50) is no more than 1000 nM. Same read-out and setting: as for `CCCS(=O)(=O)NCCOc1ccc2c(c1)C(C1(c3ccc(Cl)cc3OC)CCC1)NCC2` (stereo not shown) [Example 76, N-[2-({1-[1-(4-Chloro-2-methoxyphenyl)cyclobutyl]-1,2,3,4-tetrahydroisoquinolin-7-yl}oxy)ethyl]propane-1-sulfonamide hydrochloride], the figure is no more than 100 nM. Regarding `CCCS(=O)(=O)NCCOc1ccc2c(c1)C(C1(c3cccc(Cl)c3)CCC1)N(CC#N)CC2` (stereo not shown) [Example 77, N-[2-({1-[1-(3-Chlorophenyl)cyclobutyl]-2-(cyanomethyl)-1,2,3,4-tetrahydroisoquinolin-7-yl}oxy)ethyl]propane-1-sulfonamide], at human GlyT1c, the IC50 is no more than 1000 nM. On the same count and under the same terms, as for `CCCS(=O)(=O)NCCOc1ccc2c(c1)C(C1(c3cccc(Cl)c3)CCC1)N(CCN)CC2` (stereo not shown) [Example 78, N-[2-({2-(2-Aminoethyl)-1-[1-(3-chlorophenyl)cyclobutyl]-1,2,3,4-tetrahydroisoquinolin-7-yl}oxy)ethyl]propane-1-sulfonamide bis(trifluoroacetate)], the figure is no more than 10000 nM; as for `CCCS(=O)(=O)NCCOc1ccc2c(c1)C(C1(c3ccc(F)cc3)CCC1)N(c1ncc[nH]1)CC2` (stereo not shown) [Example 79, N-[2-({1-[1-(4-Fluorophenyl)cyclobutyl]-2-(1H-imidazol-2-yl)-1,2,3,4-tetrahydroisoquinolin-7-yl}oxy)ethyl]propane-1-sulfonamide], no more than 1000 nM; as for `CCCS(=O)(=O)NCCOc1ccc2c(c1)C(C1(c3ccc(Cl)cc3)CCC1)N(CC#N)CC2` (stereo not shown) [Example 80, N-[2-({1-[1-(4-cChlorophenyl)cyclobutyl]-2-(cyanomethyl)-1,2,3,4-tetrahydroisoquinolin-7-yl}oxy)ethyl]propane-1-sulfonamide hydrochloride], no more than 100 nM. On the same count and under the same terms, as for `O=S(=O)(CCCOc1ccc2c(c1)C(C1(c3ccc(Cl)cc3)CCC1)NCC2)N1CCOCC1` (stereo not shown) [Example 81, 1-[1-(4-Chlorophenyl)cyclobutyl]-7-[3-(morpholin-4-ylsulfonyl)propoxy]-1,2,3,4-tetrahydroisoquinoline hydrochloride], the figure is no more than 10000 nM. In the case of `CCCNS(=O)(=O)CCCOc1ccc2c(c1)C(C1(c3ccc(Cl)cc3)CCC1)NCC2` (stereo not shown) [Example 82, 3-({1-[1-(4-Chlorophenyl)cyclobutyl]-1,2,3,4-tetrahydroisoquinolin-7-yl}oxy)-N-propylpropane-1-sulfonamide hydrochloride], on human GlyT1c, the half-maximal inhibitory concentration (IC50) was no more than 1000 nM. On to `O=S(=O)(NCCOc1ccc2c(c1)C(C1(c3ccc(Cl)cc3)CC1)NCC2)c1cccnc1` (stereo not shown) [Example 85, N-[2-({1-[1-(4-Chlorophenyl)cyclopropyl]-1,2,3,4-tetrahydroisoquinolin-7-yl}oxy)ethyl]pyridine-3-sulfonamide], for which, on human GlyT1c, the 50% inhibitory concentration (IC50) was no more than 100 nM. Same read-out and setting: as for `Cn1cc(S(=O)(=O)NCCOc2ccc3c(c2)C(C2(c4ccc(Cl)cc4)CC2)NCC3)cn1` (stereo not shown) [Example 86, N-[2-({1-[1-(4-Chlorophenyl)cyclopropyl]-1,2,3,4-tetrahydroisoquinolin-7-yl}oxy)ethyl]-1-methyl-1H-pyrazole-4-sulfonamide], the figure is no more than 100 nM; as for `CCCS(=O)(=O)NCCOc1ccc2c(c1)C(C1(c3ccc(Cl)cc3)CC1)NCC2` (stereo not shown) [Example 87, N-[2-({1-[1-(4-Chlorophenyl)cyclopropyl]-1,2,3,4-tetrahydroisoquinolin-7-yl}oxy)ethyl]propane-1-sulfonamide hydrochloride], no more than 100 nM; as for `NCCS(=O)(=O)NCCOc1ccc2c(c1)C(C1(c3ccc(Cl)cc3)CCC1)NCC2` (stereo not shown) [Example 154, 2-Amino-N-[2-({1-[1-(4-chlorophenyl)cyclobutyl]-1,2,3,4-tetrahydroisoquinolin-7-yl}oxy)ethyl]ethanesulfonamide], no more than 1000 nM.
